# Results from patent US20160136109A1, “COMPOSITIONS FOR TISSUE STABILIZATION” (Vatrix Medical, Inc., priority 2008, published 2016).
# What was measured:
# [1] = system: porcine aortic wall exposed to type I collagenase; assay: Tissue resistance to collagenase degradation after treatment; assay type: biochemical; settings: type I collagenase 150 U/mL, 24 hours, 37° C.; fresh sample over 85% digested
# Method: Tissue resistance to collagenase degradation after treatment with various reagents is discussed. Specifically, samples of porcine aortic wall were either left untreated (fresh) or treated with Glut alone or Glut followed by tannic acid (TA). Glut treatment was performed with 0.6% (w/v) Glut for 1 day, and then 0.2% (w/v) Glut for 7 days at room temperature; Glut/TA treatment was performed with 0.6% (w/v) Glut for 1 day, and then 0.2% (w/v) Glut for 7 days at room temperature followed by 0.15% (w/v) TA for 4 days at 37° C. The treated samples were rinsed 3 times (1 hour each) in 100 mL water, and lyophilized to record dry weight. Samples with the amount of ˜15 to 25 mg dry weight were immersed in 1.2 mL of type I collagenase (150 U/mL) dissolved in 50 mM Tris buffer, 10 mM CaCl2, pH 7.4, and incubated at 37° C. with orbital shaking at 650 rpm for 24 hours. Following this exposure to collagenase, samples were centrifuged (10000 rpm, 10 minutes, 4° C.), individually rinsed three times in 1 mL water, lyophilized to obtain dry weight after collagenase, and the percent of digested tissue was calculated.
# The percentage of tissue digestion was compared in graphical format in FIG. 4.
# [2] = system: porcine carotid arteries exposed to porcine pancreatic elastase; assay: Tissue resistance to elastase degradation after treatment; assay type: biochemical; settings: 0.6% Glut, 0.15% PGG, 20 minutes total treatment (cocktail 20 min or 10 min + 10 min sequential); elastase 3 units/mL 24 hrs 37° C.; compared to saline controls
# Method: This example involves model results based on in vitro treatment of tissue samples for period of time that are realistic for in vivo applications. Specifically, tissue resistance to elastase degradation after treatment with various reagents is discussed. Specifically, porcine carotid arteries were treated with saline (control, for 20 minutes), Glut (for 20 minutes), PGG (for 20 minutes), or a combination of the two (Glut+PGG for 20 minutes, or Glut for 10 minutes followed by a separate incubation with PGG for 10 minutes). Concentrations of the reagents used were 0.6% (w/v) for Glut, 0.15% (w/v) for PGG and 9 g/L for physiological saline.
# The treated tissue was then exposed to an in vitro elastase digestion assay to subject the treated tissue to digestion for 24 hrs. Briefly, tissue samples were incubated individually with 1 mL of 3 units/mL porcine pancreatic elastase (Elastin Products Company; Owensville, Mo.) dissolved in 100 mM Tris buffer, 1 mM CaCl2, 0.02% NaN3, pH 7.8. Incubation with the elastase was conducted for 24 hrs at 37° C. with orbital shaking at 500 rpm. Because the values shown are percentage of digestion, the lower the value, the better the reagent used performed in resisting elastase degradation. […] It should be noted that the digestion model used in this experiment is a very accelerated and aggressive digestion model.
# [3] = collagen crosslinking/stabilization; cited from earlier work
percent of digested tissue (mass loss) [1],SMILES,percentage digestion by elastase (resistance to degradation) [2],toxicity [3]
over 20%,"O=CCCCC=O [Glut, Glutaraldehyde]",slightly improved the resistance of the tissue to degradation,
,"COC(=O)C1=CO[C@@H](O)[C@@H]2C(CO)=CC[C@H]12 [genipin, Genipin]",,relatively non-toxic
